Target: T1, human mAChR M4 (Homo sapiens, UniProt P08173)
T1 construct: expressed in transfected cells
T1 sequence (P08173 1-479): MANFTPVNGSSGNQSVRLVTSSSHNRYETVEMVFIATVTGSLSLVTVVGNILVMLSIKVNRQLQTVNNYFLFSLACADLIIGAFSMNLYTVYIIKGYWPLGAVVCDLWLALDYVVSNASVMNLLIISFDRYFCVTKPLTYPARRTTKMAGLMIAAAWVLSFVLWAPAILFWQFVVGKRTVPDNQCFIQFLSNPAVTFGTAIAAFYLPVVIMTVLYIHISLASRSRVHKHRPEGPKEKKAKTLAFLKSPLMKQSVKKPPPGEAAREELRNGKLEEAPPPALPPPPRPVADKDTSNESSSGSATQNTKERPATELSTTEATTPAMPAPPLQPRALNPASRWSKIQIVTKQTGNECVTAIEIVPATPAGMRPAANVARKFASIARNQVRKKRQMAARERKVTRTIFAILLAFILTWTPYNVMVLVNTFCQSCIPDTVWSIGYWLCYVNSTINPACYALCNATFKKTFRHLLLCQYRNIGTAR
Test: mAChR M4 cell-based functional assay (calcium mobilization, CHO-K1 hM4-Gqi5 cells)
Conditions: for Emax at 30 µM: CHO-K1, % ACh maximum at 30 μM; for EC50: positive allosteric modulator activity, increase in the EC20 acetylcholine response, CHO-K1 hM4-Gqi5 cells, read-out: Human M4 EC50
Procedure, shortened: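 CHO-K1 cells stably expressing human M4 with chimeric Gqi5, loaded with Fluo-4 AM; compounds given as 11-point 1:3 curves and calcium flux read on FDSS at 1 Hz. Acetylcholine EC20 added at 144 s, EC80 at 230 s; agonist, PAM (EC20 potentiation) and antagonist (EC80 inhibition) EC50/Emax from four-parameter fits.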

[1] = % ACh maximum at 30 μM, human M4

Emax at 30 µM (human M4) | EC50 | Emax [1] | SMILES | Emax (CHO-K1)
78% | 539 nM | – | Cc1c(C#N)nnc(N2CCc3ncc(Nc4nc(Cl)ncc4F)cc3C2)c1C [compound 81, 6-[3-[(2-chloro-5-fluoro-pyrimidin-4-yl)amino]-7,8-dihydro-5H-1,6-naphthyridin-6-yl]-4,5-dimethyl-pyridazine-3-carbonitrile] | –
47% | 961 nM | – | CCCCn1nc(C)cc1Nc1cnc2c(c1)CN(c1ncc(C#N)cc1C)CC2 [Example 315, 6-(3-((1-butyl-3-methyl-1H-pyrazol-5-yl)amino)-7,8-dihydro-1,6-naphthyridin-6(5H)-yl)-5-methylnicotinonitrile] | –
80% | 366 nM | – | Cc1nc(C)c(C)c(N2CCc3ncc(-c4ccc(N5CCN(C)CC5)nc4)cc3C2)n1 [compound 233, 3-(6-(4-methylpiperazin-1-yl)pyridin-3-yl)-6-(2,5,6-trimethylpyrimidin-4-yl)-5,6,7,8-tetrahydro-1,6-naphthyridine] | –
122% | 40 nM | – | Cc1cc(C(=O)N2CC(C)(O)C2)nnc1N1CCc2ncc(N3CCCn4nccc43)cc2C1 [Example 547, (6-(3-(6,7-dihydropyrazolo[1,5-a]pyrimidin-4(5H)-yl)-7,8-dihydro-1,6-naphthyridin-6(5H)-yl)-5-methylpyridazin-3-yl)(3-hydroxy-3-methylazetidin-1-yl)methanone] | –
68% | 570 nM | – | Cc1cc(C(=O)N2CCCC2(C)C)nnc1N1CCc2ncc(N3CCCn4nccc43)cc2C1 [Example 529, (6-(3-(6,7-dihydropyrazolo[1,5-a]pyrimidin-4(5H)-yl)-7,8-dihydro-1,6-naphthyridin-6(5/I)-yl)-5-methylpyridazin-3-yl)(2,2-dimethylpyrrolidin-1-yl)methanone] | –
97% | 28 nM | – | [2H]C1([2H])Cc2ncc(Nc3cc(C)ncc3F)cc2C([2H])([2H])N1c1nnc(C#N)cc1C [Example 603, 6-(3-((5-fluoro-2-methylpyridin-4-yl)amino)-7,8-dihydro-1,6-naphthyridin-6(5H)-yl-5,5,7,7-d4)-5-methylpyridazine-3-carbonitrile] | –
98% | 187 nM | – | Cc1cc(C#N)cnc1N1CCc2ncc(-c3cccnc3)cc2C1 [compound 191, 5-methyl-6-[3-(3-pyridyl)-7,8-dihydro-5H-1,6-naphthyridin-6-yl]pyridine-3-carbonitrile] | –
87% | 154 nM | – | Cc1nc(C)c(C)c(N2CCc3ncc(Oc4ccccc4F)cc3C2)n1 [compound 260, 3-(2-fluorophenoxy)-6-(2,5,6-trimethylpyrimidin-4-yl)-5,6,7,8-tetrahydro-1,6-naphthyridine] | –
90% | 169 nM | – | Cc1nc(Cl)c(C)c(N2CCc3ncc(-c4cn(C)nc4C)cc3C2)n1 [compound 192, 6-(6-chloro-2,5-dimethyl-pyrimidin-4-yl)-3-(1,3-dimethylpyrazol-4-yl)-7,8-dihydro-5H-1,6-naphthyridine] | –
38% | 4470 nM | – | Cc1cc(F)c(F)cc1-c1cnc2c(c1)CN(c1ncc(C#N)cc1C)CC2 [Example 595, 6-(3-(4,5-difluoro-2-methylphenyl)-7,8-dihydro-1,6-naphthyridin-6(5H)-yl)-5-methylnicotinonitrile] | –
76% | 4100 nM | – | Cc1cc(C(=O)NCC(C)(C)O)cnc1N1CCc2ncc(-c3cn(C)nc3C)cc2C1 [Example 461, 6-(3-(1,3-dimethyl-1H-pyrazol-4-yl)-7,8-dihydro-1,6-naphthyridin-6(5H)-yl)-N-(2-hydroxy-2-methylpropyl)-5-methylnicotinamide] | –
61% | 778 nM | – | Cc1c(C#N)nnc(N2CCc3ncc(-c4cnc(Cl)c(F)c4)cc3C2)c1C [compound 51, 6-[3-(6-chloro-5-fluoro-3-pyridyl)-7,8-dihydro-5H-1,6-naphthyridin-6-yl]-4,5-dimethyl-pyridazine-3-carbonitrile] | –
– | 326 nM | 96% | Cc1cc(C#N)cnc1N1Cc2cc(N3CCOCC3)cnc2C(C)C1 (single isomer, unassigned) [Example 406, 5-methyl-6-(8-methyl-3-morpholino-7,8-dihydro-1,6-naphthyridin-6(5H)-yl)nicotinonitrile] | –
95% | 123 nM | – | Cc1cc(-c2cnc3c(c2)CN(c2nc(C)nc(Cl)c2C)CC3)ccn1 [compound 93, 6-(6-chloro-2,5-dimethyl-pyrimidin-4-yl)-3-(2-methyl-4-pyridyl)-7,8-dihydro-5H-1,6-naphthyridine] | –
76% | 522 nM | – | Cc1cc(C#N)nnc1N1CCc2ncc(-c3c(C)noc3C)cc2C1 [Example 401, 6-(3-(3,5-dimethylisoxazol-4-yl)-7,8-dihydro-1,6-naphthyridin-6(5H)-yl)-5-methylpyridazine-3-carbonitrile] | –
– | 685 nM | 65% | Cc1cc(C#N)cnc1N1Cc2cc(N3CCOCC3)cnc2C(C)C1 (single isomer, unassigned) [Example 408, 5-methyl-6-(8-methyl-3-morpholino-7,8-dihydro-1,6-naphthyridin-6(5H)-yl)nicotinonitrile] | –
73% | 64 nM | – | Cc1cc(C(=O)N2CC(F)C2)nnc1N1CCc2ncc(Nc3ccnn3C)cc2C1 [Example 559, (3-fluoroazetidin-1-yl)(5-methyl-6-(3-((1-methyl-1H-pyrazol-5-yl)amino)-7,8-dihydro-1,6-naphthyridin-6(5H)-yl)pyridazin-3-yl)methanone] | –
98% | 142 nM | – | Cc1cc(C#N)cnc1N1CCc2ncc(-c3c(C)nn(C)c3C)cc2C1 [compound 107, 5-methyl-6-[3-(1,3,5-trimethylpyrazol-4-yl)-7,8-dihydro-5H-1,6-naphthyridin-6-yl]pyridine-3-carbonitrile] | –
90% | 10 nM | – | [2H]C1([2H])Cc2ncc(Nc3ccncc3F)cc2C([2H])([2H])N1c1nnc(C#N)cc1C [Example 606, 6-(3-((3-fluoropyridin-4-yl)amino)-7,8-dihydro-1,6-naphthyridin-6(5H)-yl-5,5,7,7-d4)-5-methylpyridazine-3-carbonitrile] | –
51% | 910 nM | – | Cc1c(C#N)nnc(N2CCc3ncc(Nc4ccccc4N(C)C)cc3C2)c1C [compound 40, 6-[3-[2-(dimethylamino)anilino]-7,8-dihydro-5H-1,6-naphthyridin-6-yl]-4,5-dimethyl-pyridazine-3-carbonitrile] | –
96% | 248 nM | – | Cc1c(C#N)nnc(N2CCc3ncc(N4CC(C)Cn5nccc54)cc3C2)c1C (centres unmarked) [Example 374, 4,5-dimethyl-6-(3-(6-methyl-6,7-dihydropyrazolo[1,5-a]pyrimidin-4(5H)-yl)-7,8-dihydro-1,6-naphthyridin-6(5H)-yl)pyridazine-3-carbonitrile] | –
69% | 74 nM | – | Cc1cc(C(=O)N2CC(F)C2)nnc1N1CCc2ncc(-c3ccnn3C)cc2C1 [Example 563, (3-fluoroazetidin-1-yl)(5-methyl-6-(3-(1-methyl-1H-pyrazol-5-yl)-7,8-dihydro-1,6-naphthyridin-6(5H)-yl)pyridazin-3-yl)methanone] | –
72% | 7600 nM | – | Cc1c(Cl)nc(C2CC2)nc1N1CCc2ncc(Nc3ccccc3F)cc2C1 [compound 90, 6-(6-chloro-2-cyclopropyl-5-methyl-pyrimidin-4-yl)-N-(2-fluorophenyl)-7,8-dihydro-5H-1,6-naphthyridin-3-amine] | –
125% | 46 nM | – | Cc1cc(C(=O)N2CCC2)nnc1N1CCc2ncc(N3CCCn4nccc43)cc2C1 [Example 545, azetidin-1-yl(6-(3-(6,7-dihydropyrazolo[1,5-a]pyrimidin-4(5H)-yl)-7,8-dihydro-1,6-naphthyridin-6(5H)-yl)-5-methylpyridazin-3-yl)methanone] | –
66% | 554 nM | – | Cc1c(C#N)nnc(N2CCc3ncc(-c4ccc(N5CC(C(C)(C)O)C5)nc4)cc3C2)c1C [Example 329, 6-(3-(6-(3-(2-hydroxypropan-2-yl)azetidin-1-yl)pyridin-3-yl)-7,8-dihydro-1,6-naphthyridin-6(5H)-yl)-4,5-dimethylpyridazine-3-carbonitrile] | –
88% | 2460 nM | – | [2H]C1([2H])Cc2ncc(-c3ccnn3C)cc2C([2H])([2H])N1c1nnc(C#N)cc1C [Example 617, 5-methyl-6-(3-(1-methyl-1H-pyrazol-5-yl)-7,8-dihydro-1,6-naphthyridin-6(5H)-yl-5,5,7,7-d4)pyridazine-3-carbonitrile] | –
76% | 304 nM | – | Cc1nc(Cl)c(C)c(N2CCc3ncc(Oc4ccc5c(cnn5C)c4)cc3C2)n1 [compound 208, 6-(6-chloro-2,5-dimethyl-pyrimidin-4-yl)-3-(1-methylindazol-5-yl)oxy-7,8-dihydro-5H-1,6-naphthyridine] | –

SMILES | Emax at 30 µM (human M4) | EC50 | Emax [1] | Emax (CHO-K1)
Cc1nc(Cl)c(C)c(N2Cc3cc(N)cnc3C(C)C2)n1 (centres unmarked) [compound 255, 6-(6-chloro-2,5-dimethylpyrimidin-4-yl)-8-methyl-5,6,7,8-tetrahydro-1,6-naphthyridin-3-amine] | – | 2100 nM | – | 88%
